According to publication PMC11200944, “Hybrid Caffeic Acid-Based DHFR Inhibitors as Novel Antimicrobial and Anticancer Agents” (Antibiotics, 2024):
≈ marks a conversion by molar mass, not a printed value. Read-outs that look alike come from different tables or passages of the source.

Assays:
DHFR = target: T1, DHFR (Homo sapiens, UniProt P00374); test: In vitro DHFR inhibition assay (DHFR assay kit CS0340, spectrophotometric, 340 nm); type: biochemical
T1 construct: purchased Sigma-Aldrich CS0340
T1 sequence (P00374 1-187): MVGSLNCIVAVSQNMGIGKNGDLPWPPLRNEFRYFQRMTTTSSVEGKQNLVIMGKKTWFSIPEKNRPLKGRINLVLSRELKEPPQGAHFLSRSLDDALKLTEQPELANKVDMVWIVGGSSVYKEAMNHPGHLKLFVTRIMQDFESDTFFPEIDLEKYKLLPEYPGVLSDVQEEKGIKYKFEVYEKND
Description: This assessment was carried out using the DHFR assay kit (catalog number CS0340, Sigma-Aldrich, Burlington, MA, USA) by using a spectrophotometric method. The enzymatic […] of dihydrofolic acid to tetrahydrofolic acid was monitored at 340 nm for 180 s, following the procedure recommended by the manufacturer of the assay kit. […] To evaluate the ability of the synthesized derivatives to block DHFR activity, a spectrophotometric assay technique was utilized at 340 nm for 180 seconds to detect the enzyme-catalyzed conversion of dihydrofolic acid to tetrahydrofolic acid. The DHFR assay kit (Sigma-Aldrich, catalog number CS0340) was used in this assay. The kit was tested using recombinant DHFR, NIH 3T3, A431, and CHO cell lines, as well as rat kidney, brain, liver, and muscle tissue extracts. Dihydrofolic acid, NADPH, standard drug solution, assay buffer, and DHFR stock solutions were prepared according to the instructions given in the technical bulletin that came along with the test kit. Except for the assay buffer, all stock solutions were stored on ice.
Each well of a 96-well clear microplate was filled with a calculated amount of assay buffer (190 μL), followed by 6 μL of diluted DHFR, which was thoroughly mixed. […] The microplate was then covered with parafilm, and the contents were mixed by inversion. Following the addition of 1 μL of substrate dihydrofolic acid, the absorbance was measured at 340 nm over a period of 180 s using an ELISA reader (Gen BioTek Microplate Reader, Winooski, VT, USA) in kinetic mode at room temperature. Plotting the relationship between absorbance and time generates the slope for each test inhibitor sample. The relative inhibition percentages were calculated using Equation (1). % relative inhibition = (slope of [EC] − slope of [S]/slope of [EC]) × 100(1) where S is the sample of interest, EC (enzyme control).

[1] = test system: MCF-7 breast cancer cell line; test: Anticancer activity (MTT assay); type: cell-based; settings: Homo sapiens
Description: The anticancer potential of synthesized derivatives was assessed by targeting the MCF-7 breast cancer cell line.
The potential newly synthesized derivatives were evaluated for their cytotoxic activity on the MCF-7 cell line (sourced from NCCS in Pune, India) using the MTT (3-[4,5-dimethylthiazol-2-yl]-2,5-diphenyl tetrazolium bromide) assay. To perform the assay, 10,000 cells were placed in each well of 96-well plates and left to incubate for 24 h in Dulbecco’s Modified Eagle Medium (DMEM). The medium was supplemented with 1% antibiotic solution and 10% FBS (fetal bovine serum), and the incubation occurred at a temperature of 37 °C in an environment containing 5% CO2. […] The cultures were then subjected to additional 2 h incubation. Upon concluding the experiment, the culture supernatant was extracted, and the cellular matrix was dissolved in 100 µL of DMSO. The absorbance of the resulting solution underwent evaluation using an ELISA plate reader (iMark, Biorad, Hercules, CA, USA) at 540 nm. Triplicate measurements were performed to enhance the reliability and reproducibility of the results obtained.

[2] = test system: S. aureus (ATCC FDA209-P); test: Antibacterial MIC, broth microdilution; type: cell-based, Staphylococcus aureus; settings: read-out: MIC (µM) S. aureus
Description: (§1) The serial dilution technique was utilized to evaluate the antimicrobial activity of synthesized derivatives against Gram-negative, Gram-positive, and fungal strains. […] To dissolve the reference and sample derivatives, DMSO was employed as a solvent. The synthesized compounds were evaluated for their antibacterial effectiveness against E. coli, P. aeruginosa, and S. aureus, and their antifungal potential was tested against Candida albicans and Aspergillus niger.
(§2) The antibacterial and antifungal activity of potential synthesized compounds was evaluated using the broth microdilution method to determine their minimum inhibitory concentration (MIC). […] Individual MIC (µM) values were determined using serial dilution technique with Mueller–Hinton Broth (MHB) media for bacterial growth and Roswell Park Memorial Institute (RPMI) media for fungal growth. […] The turbidity of the spore suspension was corrected to 0.5 McFarland by adding distilled water. Stock solutions of synthesized compounds were prepared in DMSO solvent and serially diluted to determine the MIC value. Each spore (0.1 mL) was put into each well holding the finally serially diluted synthesized compound concentration, standards, and controls. […] Agar plate spotting was carried out for each spore and incubated for 24 h at 37 ± 1 °C (for bacteria spores), 48 h at 37 ± 1 °C (for C. albicans), and 7 days at 25 ± 1 °C (for A. niger) to determine CFU. To assess reproducibility, duplicate tests were performed on three separate days.

[3] = test system: P. aeruginosa (ATCC 27853); test: Antibacterial MIC, broth microdilution; type: cell-based, Pseudomonas aeruginosa; settings: read-out: MIC (µM) P. aeruginosa
Description: as §1, §2

E. coli (ATCC 25922) = test: Antibacterial MIC, broth microdilution; type: cell-based, Escherichia coli; settings: read-out: MIC (µM) E. coli
Description: as §1, §2

[4] = test system: C. albicans (ATCC SC5314); test: Antifungal MIC, broth microdilution; type: cell-based, Candida albicans; settings: for MIC: read-out: MIC (µM) C. albicans
Description: as §1, §2

A. niger (MTCC 1688) = test: Antifungal MIC, broth microdilution; type: cell-based, Aspergillus niger; settings: for MIC: read-out: MIC (µM) A. niger
Description: as §1, §2

[5] = MCF7, 24 h, read-out: Anticancer IC50 (µM), n = 3
[6] = Staphylococcus aureus, FDA209, MHB, 37 °C, 24 h
[7] = Pseudomonas aeruginosa, ATCC27853, MHB, 37 °C, 24 h
[8] = Escherichia coli, ATCC25922, MHB, 37 °C, 24 h
[9] = Candida albicans, SC5314, RPMI, 37 °C, 48 h
[10] = Aspergillus niger, MTCC1688, 168 h, RPMI, 25 °C, 7 days
[11] = MCF7, read-out: Anticancer IC50 (µM), n = 3, MCF-7, MTT, 24 h
[12] = read-out: DHFR Inhibition IC50 (µM) ± SD, n = 3, 180 s

| Compound | MIC [2, 6] [µM] | MIC [3, 7] [µM] | MIC (E. coli (ATCC 25922); [8]) [µM] | MIC [4, 9] [µM] | MIC (A. niger (MTCC 1688); [10]) [µM] | also measured |
| --- | --- | --- | --- | --- | --- | --- |
| O=[N+]([O-])c1ccccc1C=Nn1c(S)nnc1C=Cc1ccc(O)c(O)c1 [CTh6, 4-(2-(4-(2-nitrobenzylideneamino)-5-mercapto-4H-1,2,4-triazol-3-yl)vinyl)benzene-1,2-diol] |  |  |  |  |  | IC50 (DHFR; 180 s): 10.5 ± 0.7 µM; IC50 [1, 5]: 89.2 ± 4.17 µM; MIC ([2]; Staphylococcus aureus, FDA209, 24 h): 10 µM (≈ 3.83 µg/mL); MIC ([3]; Pseudomonas aeruginosa, ATCC27853, 24 h): 10 µM (≈ 3.83 µg/mL); MIC (E. coli (ATCC 25922); Escherichia coli, ATCC25922, 24 h): 20 µM (≈ 7.67 µg/mL); MIC ([4]; Candida albicans, SC5314, 48 h): 41 µM (≈ 15.7 µg/mL); MIC (A. niger (MTCC 1688); Aspergillus niger, MTCC1688, 168 h): 83 µM (≈ 31.8 µg/mL) |
| O=[N+]([O-])c1cccc(C=Nn2c(S)nnc2C=Cc2ccc(O)c(O)c2)c1 [CTh3, 4-(2-(4-(3-nitrobenzylideneamino)-5-mercapto-4H-1,2,4-triazol-3-yl)vinyl)benzene-1,2-diol] | 5 (≈ 1.92 µg/mL) | 10 (≈ 3.83 µg/mL) | 10 (≈ 3.83 µg/mL) | 20 (≈ 7.67 µg/mL) | 83 (≈ 31.8 µg/mL) |  |
| COc1cc(Cc2cnc(N)nc2N)cc(OC)c1OC [Trimethoprim, reference compound] | 63 (≈ 18.3 µg/mL) | 31 (≈ 9 µg/mL) | 31 (≈ 9 µg/mL) | 255 (≈ 74 µg/mL) | 127 (≈ 36.9 µg/mL) |  |
| COc1cccc2c1C(=O)c1c(O)c3c(c(O)c1C2=O)C[C@@](O)(C(=O)CO)C[C@@H]3O[C@H]1C[C@H](N)[C@H](O)[C@H](C)O1 [doxorubicin, reference compound] |  |  |  |  |  | IC50 [1, 11]: 3.62 µM |
| C[C@@H](c1ncncc1F)[C@](O)(Cn1cncn1)c1ccc(F)cc1F [Voriconazole, reference compound] |  |  |  | 0.34 (≈ 0.119 µg/mL) | 5 (≈ 1.75 µg/mL) |  |
| Nn1c(S)nnc1C=Cc1ccc(O)c(O)c1 [CTh] |  |  |  |  |  | IC50 (DHFR; [12]): 16.9 ± 1.2 µM; MIC ([2]; MHB, 37 °C, 24 h): 63 µM (≈ 15.8 µg/mL); MIC ([3]; MHB, 37 °C, 24 h): 127 µM (≈ 31.8 µg/mL); MIC (E. coli (ATCC 25922); MHB, 37 °C, 24 h): 255 µM (≈ 63.8 µg/mL); MIC (µM) C. albicans ([4]; RPMI, 37 °C, 48 h): -; MIC (A. niger (MTCC 1688); RPMI, 25 °C, 7 days): 127 µM (≈ 31.8 µg/mL) |
| OC(Cn1cncn1)(Cn1cncn1)c1ccc(F)cc1F [Fluconazole, reference compound] |  |  |  | 0.81 (≈ 0.248 µg/mL) | 260 (≈ 79.7 µg/mL) |  |
| Oc1ccc(/C=C/c2nnc(S)n2/N=C/c2cc3ccccc3cc2O)cc1O [CTh7, 4-(2-(4-(4-naphthalen-2-ol)-5-mercapto-4H-1,2,4-triazol-3-yl)vinyl)benzene-1,2-diol] | 19 (≈ 7.68 µg/mL) | 19 (≈ 7.68 µg/mL) | 39 (≈ 15.8 µg/mL) |  |  | IC50 (DHFR; 180 s): 0.15 ± 0.02 µM; IC50 [1, 11]: 8.53 ± 0.19 µM; MIC (µM) C. albicans ([4]; RPMI, 37 °C, 48 h): -; MIC (µM) A. niger (A. niger (MTCC 1688); RPMI, 25 °C, 7 days): - |
| CC1(C)S[C@@H]2[C@H](NC(=O)[C@H](N)c3ccccc3)C(=O)N2[C@H]1C(=O)O [Ampicillin, reference compound] | 11 (≈ 3.84 µg/mL) | 22 (≈ 7.69 µg/mL) | 11 (≈ 3.84 µg/mL) |  |  |  |
| Oc1ccc(C=Nn2c(S)nnc2C=Cc2ccc(O)c(O)c2)cc1 [CTh4, 4-(2-(4-(4-hydroxylbenzylideneamino)-5-mercapto-4H-1,2,4-triazol-3-yl)vinyl)benzene-1,2-diol] | 22 (≈ 7.8 µg/mL) | 5 (≈ 1.77 µg/mL) | 5 (≈ 1.77 µg/mL) | 11 (≈ 3.9 µg/mL) |  | IC50 [1, 5]: 122 ± 7.3 µM; MIC (µM) A. niger (A. niger (MTCC 1688); RPMI, 25 °C, 7 days): - |
| CN(C)[C@@H]1C(O)=C(C(N)=O)C(=O)[C@@]2(O)C(O)=C3C(=O)c4c(O)cccc4[C@@](C)(O)[C@H]3C[C@@H]12 [Tetracycline, reference compound] | 144 (≈ 64 µg/mL) | 36 (≈ 16 µg/mL) | 36 (≈ 16 µg/mL) |  |  |  |
| 4-(2-(4-((2,4-dichlorocyclohexa-1,5-dienyl)methyleneamino)-5-mercapto-4H-1,2,4-triazol-3-yl)vinyl)benzene-1,2-diol [CTh10] |  |  |  |  |  | IC50 (DHFR; [12]): 11.3 ± 0.92 µM; MIC ([2]; MHB, 37 °C, 24 h): 19 µM; MIC ([3]; MHB, 37 °C, 24 h): 39 µM; MIC (E. coli (ATCC 25922); MHB, 37 °C, 24 h): 39 µM; MIC ([4]; RPMI, 37 °C, 48 h): 39 µM; MIC (A. niger (MTCC 1688); RPMI, 25 °C, 7 days): 39 µM |
| COc1ccc(C=Nn2c(S)nnc2C=Cc2ccc(O)c(O)c2)cc1 [CTh1, 4-(2-(4-(4-methoxybenzylideneamino)-5-mercapto-4H-1,2,4-triazol-3-yl)vinyl)benzene-1,2-diol] | 43 (≈ 15.8 µg/mL) | 86 (≈ 31.7 µg/mL) | 86 (≈ 31.7 µg/mL) | 173 (≈ 63.7 µg/mL) |  | IC50 (DHFR; 180 s): 17 ± 1.1 µM; IC50 [1, 11]: 148 ± 11.4 µM; MIC (µM) A. niger (A. niger (MTCC 1688); RPMI, 25 °C, 7 days): - |
